17 molecules from patent US9000174B2, “4-phenylsulfonamidopiperidines as calcium channel blockers” (Purdue Pharma L.P., priority 2004, dated 2015) can be followed below.

The structures appear in SMILES notation. Structures can show the parent of a compound that is named as a salt.

Assay [1] concerns the target T1, N-type calcium channel (NTCC) (Homo sapiens, UniProt Q00975).
T1 construct: endogenous in cells; host or cells: differentiated IMR32 cells (ATCC)
Nature of the assay: FLIPR calcium mobilization (and/or electrophysiological) assay for N-type calcium channel. The class given is cell-based. The following applies: calcium mobilization and/or electrophysiological in vitro assay; differentiated IMR32 cells, 90 mM KCl, 5 μM nitrendipine. As for the experimental part:
Unless noted otherwise, cell culture reagents were purchased from Life Technologies of Rockville, Md. IMR32 cells (American Type Culture Collection, ATCC, Manassas, Va.) were routinely cultured in growth medium consisting of minimum essential medium containing 10% fetal bovine serum (FBS, Hyclone, Logan, Utah), 100 U/mL penicillin, 100 μg/mL streptomycin, 2 mM L-glutamine, 1 mM sodium pyruvate, and 1×MEM non-essential amino acids. 80-90% confluent flasks of cells were differentiated using the following differentiation medium: Growth medium plus 1 mM dibutyryl cyclic AMP (Sigma, St. Louis, Mo.), and 2.5 μM bromodeoxyuridine (Sigma). Cells were differentiated for 8 days by replacing differentiation medium every 2-3 days.
One day prior to performing this assay, differentiated IMR32 cells were treated with 1× CellStripper, and seeded on poly-D-lysine-coated 96-well clear-bottom black plates (Becton Dickinson, Franklin Lakes, N.J.) at 200,000 cells/well. On the day of the assay, the cell plates were washed with IMR32 buffer (127 mM NaCl, 1 mM KCl, 2 mM MgCl2, 700 μM NaH2PO4, 5 mM CaCl2, 5 mM NaHCO3, 8 mM HEPES, 10 mM glucose, pH 7.4), then pre-stimulated with KCl and loaded as follows: 0.05 mL of IMR32 buffer, 0.05 mL of each compound tested diluted in IMR32 buffer containing 20 μM nitrendipine (Sigma), and 0.1 mL KCl dissolved in IMR32 buffer, plus Fluo-4 were added (3 μM final concentration, Molecular Probes, Eugene, Oreg.). Final test compound concentrations ranged from about 846 pM to about 17 μM, final nitrendipine concentration was 5 μM, and final KCl concentration was 90 mM. After 1 hour, the cells were washed twice with 0.05 mL of each compound tested in nitrendipine-containing IMR32 buffer (no KCl or Fluo-4), and then replaced with 0.1 mL of each compound tested in nitrendipine-containing IMR32 buffer. Plates were then transferred to a Fluorimetric Imaging Plate Reader (FLIPR^96, Molecular Devices, Inc., Sunnyvale, Calif.) for assay. The FLIPR measured basal Fluo-4 fluorescence for 315 seconds (i.e., 5 minutes and 15 seconds), then added 0.1 mL KCl agonist dissolved in IMR32 buffer and measured fluorescence for another 45 seconds. Final test compound concentrations on the cells after FLIPR read ranged from about 846 pM to about 17 μM, final nitrendipine concentration was 5 μM, and final KCl concentration was 90 mM. Data were collected over the entire time course and analyzed using Excel, Graph Pad Prism (version 3.02, Graph Pad, San Diego, Calif.), or Activity Base (version 5.1, IDBS, Parsippany, N.J.) software.
N-type calcium channel expressing HEK-293 cells were created in two stages. Stage 1 was created as follows. The rat α1b, and β3 cDNA expression constructs (2.5 μg each) were co-transfected into human embryonic kidney (HEK-293) cells by Lipofectamine Plus reagent (Invitrogen), as per manufacturer's instructions. 24 hours later, cells were split in limiting dilution into multiple 96-well plates in selection media containing 20 μg/mL blasticidin and 500 μg/mL geneticin, and incubated for 3 weeks at 37° C., 5% CO2, 95% humidity. Plates containing ≦1 clone per well were cultured until wells positive for single clones were confluent. Individual clones were then arrayed into columns of a destination 96-well plate, and partly split into 6-well plates for culture maintenance. Array plates were washed once with IMR32 buffer and cells loaded for 1 hour with 0.1 mL of IMR32 buffer containing Fluo-4 (3 μM final concentration, Molecular Probes). Then they were washed twice with 0.1 mL of IMR32 buffer, and replaced with 0.1 mL IMR32 buffer. Plates were then transferred to a FLIPR^96 for assay. The FLIPR measured basal Fluo-4 fluorescence for 315 seconds, then added 0.1 mL KCl agonist dissolved in IMR32 buffer and measured fluorescence for another 45 seconds. Final KCl concentration was 90 mM. Data were collected over the entire time course and analyzed using Excel, Graph Pad Prism, or Activity Base software. […]

Assay [2] addresses T2, L-type calcium channel (LTCC) (Rattus norvegicus, UniProt P22002).
T2 construct: differentiated A7r5 cells were trypsinized, then seeded on tissue culture treated 96-well clear-bottom black plates; endogenous in cells; host or cells: differentiated A7r5 cells (ATCC)
Nature of the assay: FLIPR calcium mobilization (and/or electrophysiological) assay for L-type calcium channel. The following applies: calcium mobilization and/or electrophysiological in vitro assay; differentiated A7r5 cells, 90 mM KCl. It counts as cell-based. As for the experimental part: A7r5 (ATCC) cells were maintained and routinely cultured in A7r5 growth medium consisting of Dulbecco's Modified Eagles Medium containing 10% FBS, 100 U/mL penicillin, 100 μg/mL streptomycin, 4 mM L-glutamine, and 0.15% sodium bicarbonate. 80-90% confluent flasks of cells were differentiated using the following differentiation medium: A7r5 Growth Medium plus 1 mM dibutyryl cyclic AMP (Sigma). Cells were differentiated for 8 days by replacing differentiation medium every 2-3 days.
One day prior to performing this assay, differentiated A7r5 cells were trypsinized, then seeded on tissue culture treated 96-well clear-bottom black plates (Becton Dickinson, Franklin Lakes, N.J.) at a dilution of 1:1 from a confluent T150 cm^2 flask. On the day of the assay, the plates were washed with A7r5 wash buffer (127 mM NaCl, 2 mM MgCl2, 700 μM NaH2PO4, 5 mM CaCl2, 5 mM NaHCO3, 8 mM HEPES, 10 mM glucose, pH 7.4), then loaded with 0.1 mL of A7r5 wash buffer containing Fluo-4 (3 μM final concentration, Molecular Probes, Eugene, Oreg.). After 1 hour, the cells were washed with 0.1 mL A7r5 wash buffer and resuspended in 0.05 mL A7r5 assay buffer that was composed of A7r5 wash buffer plus 50 μM valinomycin (Sigma). Plates were then transferred to a FLIPR^96 for assay. The FLIPR measured basal Fluo-4 fluorescence for 15 seconds, then added 0.05 mL of each compound tested diluted in A7r5 assay buffer at final concentrations ranging from about 846 pM to about 17 μM. Fluo-4 fluorescence was then measured for 5 minutes. 0.1 mL KCl agonist dissolved in A7r5 assay buffer was then added to the cells to produce a final concentration of 90 mM KCl, and fluorescence was measured for another 45 seconds. Data were collected over the entire time course and analyzed using Excel, Graph Pad Prism, or Activity Base software.

T2 sequence (P22002 whole entry): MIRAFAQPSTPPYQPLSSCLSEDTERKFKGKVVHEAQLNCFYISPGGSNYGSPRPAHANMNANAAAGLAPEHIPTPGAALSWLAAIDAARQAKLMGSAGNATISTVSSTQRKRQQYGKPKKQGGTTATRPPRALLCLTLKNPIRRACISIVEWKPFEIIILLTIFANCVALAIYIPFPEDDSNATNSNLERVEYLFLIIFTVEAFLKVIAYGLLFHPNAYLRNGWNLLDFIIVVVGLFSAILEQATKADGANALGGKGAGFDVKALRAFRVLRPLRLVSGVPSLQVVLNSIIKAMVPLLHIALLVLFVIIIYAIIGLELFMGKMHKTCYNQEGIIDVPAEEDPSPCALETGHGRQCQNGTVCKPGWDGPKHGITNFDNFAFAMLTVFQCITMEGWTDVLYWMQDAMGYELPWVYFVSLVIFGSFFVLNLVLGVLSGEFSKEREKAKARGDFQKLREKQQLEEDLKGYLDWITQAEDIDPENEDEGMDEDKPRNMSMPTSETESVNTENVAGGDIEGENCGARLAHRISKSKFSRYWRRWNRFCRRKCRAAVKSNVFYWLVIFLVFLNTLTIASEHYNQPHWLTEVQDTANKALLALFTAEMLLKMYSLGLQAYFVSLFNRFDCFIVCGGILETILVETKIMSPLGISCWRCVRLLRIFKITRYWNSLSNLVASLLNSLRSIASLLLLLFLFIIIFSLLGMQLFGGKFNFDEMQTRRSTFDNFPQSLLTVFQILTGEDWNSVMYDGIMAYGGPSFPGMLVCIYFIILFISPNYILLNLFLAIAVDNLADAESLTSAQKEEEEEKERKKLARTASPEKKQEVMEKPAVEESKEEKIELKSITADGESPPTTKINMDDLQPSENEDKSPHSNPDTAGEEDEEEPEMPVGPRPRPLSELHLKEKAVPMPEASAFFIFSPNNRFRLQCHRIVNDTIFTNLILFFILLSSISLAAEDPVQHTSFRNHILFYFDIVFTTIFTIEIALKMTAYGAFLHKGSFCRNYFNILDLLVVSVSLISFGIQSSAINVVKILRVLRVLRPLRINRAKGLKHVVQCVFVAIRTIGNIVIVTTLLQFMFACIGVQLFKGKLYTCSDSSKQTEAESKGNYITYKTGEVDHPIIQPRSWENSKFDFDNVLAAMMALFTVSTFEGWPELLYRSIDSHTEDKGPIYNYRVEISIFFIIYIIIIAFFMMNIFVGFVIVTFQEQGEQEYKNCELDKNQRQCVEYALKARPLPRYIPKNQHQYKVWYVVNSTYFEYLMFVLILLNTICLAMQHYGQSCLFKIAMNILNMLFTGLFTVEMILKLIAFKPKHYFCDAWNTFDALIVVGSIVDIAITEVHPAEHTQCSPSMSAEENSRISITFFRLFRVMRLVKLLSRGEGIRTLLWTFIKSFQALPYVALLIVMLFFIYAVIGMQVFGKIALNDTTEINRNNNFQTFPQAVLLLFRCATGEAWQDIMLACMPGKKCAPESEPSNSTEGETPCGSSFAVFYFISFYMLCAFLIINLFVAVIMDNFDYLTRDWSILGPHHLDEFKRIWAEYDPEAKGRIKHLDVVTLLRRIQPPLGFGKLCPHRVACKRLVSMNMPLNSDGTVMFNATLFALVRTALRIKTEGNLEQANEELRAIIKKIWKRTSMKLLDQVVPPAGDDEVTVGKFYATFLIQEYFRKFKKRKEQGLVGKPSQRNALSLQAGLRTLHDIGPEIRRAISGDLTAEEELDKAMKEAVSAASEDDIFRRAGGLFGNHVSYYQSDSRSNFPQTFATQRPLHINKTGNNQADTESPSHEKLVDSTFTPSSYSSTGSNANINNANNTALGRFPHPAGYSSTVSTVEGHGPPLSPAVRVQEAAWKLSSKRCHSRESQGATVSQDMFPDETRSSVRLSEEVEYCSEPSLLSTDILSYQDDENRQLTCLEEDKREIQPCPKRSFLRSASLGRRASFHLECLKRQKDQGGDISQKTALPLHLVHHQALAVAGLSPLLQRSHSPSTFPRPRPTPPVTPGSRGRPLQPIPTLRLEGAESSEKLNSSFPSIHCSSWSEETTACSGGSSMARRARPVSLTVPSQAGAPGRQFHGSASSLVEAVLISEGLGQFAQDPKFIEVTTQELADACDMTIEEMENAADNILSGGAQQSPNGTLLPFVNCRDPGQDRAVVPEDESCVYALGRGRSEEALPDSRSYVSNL
T2 sequence (P54290 25-944 partner limits assumed): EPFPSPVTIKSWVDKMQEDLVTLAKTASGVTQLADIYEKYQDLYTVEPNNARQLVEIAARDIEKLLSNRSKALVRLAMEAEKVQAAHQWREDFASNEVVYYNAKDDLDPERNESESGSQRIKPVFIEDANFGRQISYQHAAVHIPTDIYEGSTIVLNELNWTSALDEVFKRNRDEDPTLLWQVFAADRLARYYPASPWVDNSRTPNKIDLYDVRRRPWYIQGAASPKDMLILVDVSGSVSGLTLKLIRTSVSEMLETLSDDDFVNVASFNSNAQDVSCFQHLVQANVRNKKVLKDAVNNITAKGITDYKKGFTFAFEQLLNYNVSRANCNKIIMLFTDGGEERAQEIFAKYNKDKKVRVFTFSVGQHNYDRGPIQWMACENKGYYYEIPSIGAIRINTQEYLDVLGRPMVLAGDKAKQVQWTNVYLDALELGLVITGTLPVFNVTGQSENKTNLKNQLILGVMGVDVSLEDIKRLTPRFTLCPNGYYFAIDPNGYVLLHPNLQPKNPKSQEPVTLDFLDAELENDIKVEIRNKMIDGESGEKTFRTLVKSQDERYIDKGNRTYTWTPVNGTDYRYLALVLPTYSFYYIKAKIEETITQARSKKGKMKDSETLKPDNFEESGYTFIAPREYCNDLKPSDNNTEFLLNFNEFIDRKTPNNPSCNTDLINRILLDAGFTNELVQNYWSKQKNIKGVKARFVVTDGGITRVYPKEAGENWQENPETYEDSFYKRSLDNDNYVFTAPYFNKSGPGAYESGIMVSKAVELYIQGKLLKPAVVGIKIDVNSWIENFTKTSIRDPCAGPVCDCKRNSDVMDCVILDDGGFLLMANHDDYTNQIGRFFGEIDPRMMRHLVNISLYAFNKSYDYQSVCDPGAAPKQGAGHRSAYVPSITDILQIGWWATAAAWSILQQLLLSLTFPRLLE
T2 sequence (P54290 945-1091 partner limits assumed): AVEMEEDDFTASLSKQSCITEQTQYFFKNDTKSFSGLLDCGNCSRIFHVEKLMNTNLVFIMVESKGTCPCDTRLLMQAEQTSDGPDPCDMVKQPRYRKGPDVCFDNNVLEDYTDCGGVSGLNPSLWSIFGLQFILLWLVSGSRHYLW
T2 sequence (P54287 whole entry partner): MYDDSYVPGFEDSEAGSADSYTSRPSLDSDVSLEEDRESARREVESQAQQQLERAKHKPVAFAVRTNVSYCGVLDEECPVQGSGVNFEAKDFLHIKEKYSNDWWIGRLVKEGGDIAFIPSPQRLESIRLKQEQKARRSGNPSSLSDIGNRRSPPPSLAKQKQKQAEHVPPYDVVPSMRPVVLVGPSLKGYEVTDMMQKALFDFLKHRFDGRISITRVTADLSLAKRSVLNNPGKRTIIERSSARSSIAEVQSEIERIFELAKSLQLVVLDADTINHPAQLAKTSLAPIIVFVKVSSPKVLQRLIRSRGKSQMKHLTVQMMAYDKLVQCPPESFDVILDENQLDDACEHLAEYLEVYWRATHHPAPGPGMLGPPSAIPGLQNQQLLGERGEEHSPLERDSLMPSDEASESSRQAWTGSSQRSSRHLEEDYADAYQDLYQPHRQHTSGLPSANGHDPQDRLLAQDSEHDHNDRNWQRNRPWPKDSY

Turning to `N[C@@H](C(=O)N1CCC(N(C2CC2)S(=O)(=O)c2cccc(C(F)(F)F)c2)CC1)C1CCCCC1` [(2R) N-[1-(2-Amino-2-cyclohexylethanoyl)piperidin-4-yl]-N-cyclopropyl-3-trifluoromethylbenzenesulfonamide], the IC50 was 0.44 µM in assay [1] and more than 20 µM in assay [2].

Regarding `CN[C@@H](CC(C)C)C(=O)N1CCC(N(C(C)C)S(=O)(=O)c2cccc(C(F)(F)F)c2)CC1` [(2S) N-Isopropyl-N-[1-(4-methyl-2-methylaminopentanoyl)-piperidin-4-yl]-3-trifluoromethylbenzenesulfonamide fumarate], the IC50 is 0.87 µM in assay [1] and more than 20 µM in assay [2].

In the case of `CN[C@@H](CC(C)C)C(=O)N1CCC(N(C)S(=O)(=O)c2cccc(C(F)(F)F)c2)CC1` [(2S) N-Methyl-N-[1-(4-methyl-2-methylaminopentanoyl)-piperidin-4-yl]-3-trifluoromethylbenzenesulfonamide fumarate], the values for the half-maximal inhibitory concentration (IC50) in assay [1] and in assay [2] were 0.39 µM and 5.12 µM, respectively.

As for `CC(C)C[C@H](N)C(=O)N1CCC(N(C2CC2)S(=O)(=O)c2ccccc2)CC1` [(2S) N-[1-(2-amino-4-methylpentanoyl)piperidin-4-yl]-N-cyclopropyl-benzenesulfonamide], the IC50 in assay [1] is 4.28 µM; in assay [2] it was 10 to 20 µM.

As for `CN[C@@H](CC(C)C)C(=O)N1CCC(N(C2CC2)S(=O)(=O)c2cccc(C(F)(F)F)c2)CC1` [(2S) N-cyclopropyl-N-[1-(4-methyl-2-methylamino-pentanoyl)piperidin-4-yl]-3-trifluoromethylbenzenesulfonamide], the IC50 in assay [1] stood at 0.36 µM; in assay [2], 10 µM.

Turning to `CN[C@@H](CC(C)C)C(=O)N1CCC(N(CC(C)C)S(=O)(=O)c2cccc(C(F)(F)F)c2)CC1` [(2S) N-i-butyl-N-[1-(4-methyl-2-methylaminopentanoyl)piperidin-4-yl]-3-trifluoromethylbenzenesulfonamide], the IC50 in assay [1] was 0.95 µM; in assay [2], 9.12 µM.

Take `CNC(Cc1ccccc1C)C(=O)N1CCC(N(C2CC2)S(=O)(=O)c2cccc(C(F)(F)F)c2)CC1` (stereo not shown) [N-Cyclopropyl-N-[1-(2-methylamino-3-o-tolylpropionyl)piperidin-4-yl]-3-trifluoromethylbenzenesulfonamide]: the IC50 was 0.39 µM in assay [1] and 10 to 20 µM in assay [2].

On to `CCCC(CC(=O)N1CCC(N(C2CC2)S(=O)(=O)c2cccc(C(F)(F)F)c2)CC1)N1CCSCC1` (stereo not shown) [N-Cyclopropyl-N-[1-(3-thiomorpholin-4-yl-hexanoyl)piperidin-4-yl]-3-trifluoromethylbenzenesulfonamide], for which the IC50 in assay [1] was 0.28 µM; in assay [2], 10 to 20 µM.

With `CCCc1ccc(S(=O)(=O)N2CCC(N(C3CC3)S(=O)(=O)c3cccc(C(F)(F)F)c3)CC2)cc1` [N-Cyclopropyl-N-[1-(4-propylphenylsulfonyl)piperidin-4-yl]-3-trifluoromethylbenzenesulfonamide], the results for the IC50 in assay [1] and in assay [2] were 0.44 µM and 0.94 µM, respectively.

Regarding `O=S(=O)(c1cccc(C(F)(F)F)c1)N(C1CC1)C1CCN(CCOC(c2ccc(F)cc2)c2ccc(F)cc2)CC1` [N-Cyclopropyl-N-{1-[2-bis(4-fluorophenyl)methoxyethyl]piperidin-4-yl}-3-trifluoromethylbenzenesulfonamide], the IC50 in assay [1] is 0.78 µM; in assay [2] it was 2.23 µM.

With `O=S(=O)(c1cccc(C(F)(F)F)c1)N(C1CC1)C1CCN(CCCC(c2ccc(F)cc2)c2ccc(F)cc2)CC1` [N-Cyclopropyl-N-{1-[4,4-bis(4-fluorophenyl)butyl]piperidin-4-yl}-3-trifluoromethylbenzenesulfonamide], the IC50 in assay [1] amounted to 0.11 µM; in assay [2], 3.78 µM.

On to `COc1ccc(C(=O)N2CCC(N(C3CC3)S(=O)(=O)c3cccc(C(F)(F)F)c3)CC2)cc1C(F)(F)F` [N-Cyclopropyl-N-{1-[(3-trifluoromethyl-4-methoxy)benzoyl]piperidin-4-yl}-3-trifluoromethylbenzenesulfonamide], for which the IC50 in assay [1] is 0.3 µM; in assay [2], 4.57 µM.

For `O=S(=O)(c1cccc(C(F)(F)F)c1)N(C1CC1)C1CCN(Cc2ccnc3ccccc23)CC1` [N-cyclopropyl-N-[1-(4-quinolinylmethyl)piperidin-4-yl]-3-trifluoromethylbenzenesulfonamide], the IC50 in assay [1] amounted to 0.86 µM; in assay [2], 1.7 µM.

With `O=C(CC=C(c1ccc(F)cc1)c1ccc(F)cc1)N1CCC(N(C2CC2)S(=O)(=O)c2ccccc2)CC1` [N-cyclopropyl-N-{1-[4,4-bis(4-fluorophenyl)but-3-enoyl]piperidin-4-yl}benzenesulfonamide], the IC50 was found to be 1.24 µM in assay [1] and 2.59 µM in assay [2].

Consider `O=C(CCC(c1ccc(F)cc1)c1ccc(F)cc1)N1CCC(N(C2CC2)S(=O)(=O)c2cccc(F)c2)CC1` [N-cyclopropyl-N-{1-[4,4-bis(4-fluorophenyl)butanoyl]piperidin-4-yl}-3-fluorobenzenesulfonamide], for which the figures for the IC50 in assay [1] and in assay [2] were 0.97 µM and 1.43 µM, respectively.

On to `O=C(CCC(c1ccc(F)cc1)c1ccc(F)cc1)N1CCC(N(C2CC2)S(=O)(=O)c2ccccc2)CC1` [N-cyclopropyl-N-{1-[4,4-bis(4-fluorophenyl)butanoyl]piperidin-4-yl}benzenesulfonamide], for which the IC50 in assay [1] was 1.09 µM; in assay [2], 3.24 µM.

For `NC(Cc1ccc(F)cc1)C(=O)N1CCC(N(C2CC2)S(=O)(=O)c2cccc(C(F)(F)F)c2)CC1` (stereo not shown) [N-{1-[2-Amino-3-(4-fluorophenyl)propionyl]piperidin-4-yl}-N-cyclopropyl-3-trifluoromethylbenzenesulfonamide], the results for the half-maximal inhibitory concentration (IC50) in assay [1] and in assay [2] were 0.18 µM and 8.6 µM, respectively.
